# Values joined by “and” are separate entries in the source; they are usually repeats but may differ in a detail not shown here. Equal values may be shown once.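 Interpolation was linear, between the two tested concentrations surrounding the appropriate level; five concentrations were tested over 48 hours in 96-well plates. TGI: concentration producing complete growth inhibition.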
# Tests used:
# Experiment in all cases: NCI tumour cell line growth inhibition, 48 h
# SK-MEL-28 melanoma = test system: SK-MEL-28 melanoma
# BT-549 breast = test system: BT-549 breast
# EKVX NSCLC = test system: EKVX NSCLC
# HT29 colon = test system: HT29 colon
# MALME-3M melanoma = test system: MALME-3M melanoma
# M14 melanoma = test system: M14 melanoma
# SW-620 colon = test system: SW-620 colon
# SR leukemia = test system: SR leukemia
# OVCAR-3 ovarian = test system: OVCAR-3 ovarian
# NCI-H226 lung = test system: NCI-H226 lung
# HCT-116 colon = test system: HCT-116 colon
SMILES,TGI (SK-MEL-28 melanoma),TGI (BT-549 breast) [µM],TGI (EKVX NSCLC) [µM],TGI (HT29 colon),TGI (MALME-3M melanoma) [µM],TGI (M14 melanoma) [µM],TGI (SW-620 colon) [µM],TGI (SR leukemia) [µM],TGI (OVCAR-3 ovarian) [µM],TGI (NCI-H226 lung) [µM],TGI (HCT-116 colon)
CCCc1c2c3ccccc3nc-2nc2ccccn12,> 100 µM,> 100,> 100,> 100 µM,> 100,> 100,> 100,> 100,> 100,,
S=C(Nc1ccc(Br)cn1)NC12CC3CC(CC(C3)C1)C2,> 100 µM,,65,,58.9,> 100,> 100,> 100,> 100,64.8,35.3 µM
N#Cc1c(-c2ccc(Cl)cc2)c(C#N)c(=O)n(NS(=O)(=O)c2ccccc2)c1-c1ccccc1,> 25 µM,> 25,,,,> 25,> 25,,,,> 25 µM
Cc1cc(=Nc2ccc3c(c2)c(N)cc(C)[n+]3C)nc(N)n1C,> 100 µM,> 100,> 100,> 100 µM,> 100,> 100,> 100,> 100,> 100,,> 100 µM
NNC(=O)c1n[nH]nc1SSc1n[nH]nc1C(=O)NN,> 100 µM,> 100,> 100,> 100 µM,,> 100,> 100,,> 100,> 100,> 100 µM
Cc1cc2c(-c3ccccc3)cc(=O)[nH]c2cc1N,> 100 µM,> 100,> 100,> 100 µM,,> 100,> 100,> 100,> 100,> 100,> 100 µM
C#CCOC(=O)c1ccccc1OC(C)=O,,> 100,> 100,,,> 100,> 100,> 100,,> 100,> 100 µM
C[C@@H]1C(O)CC[C@H](C)C12CC=CC2=O (stereo not given in full),> 100 µM,,> 100,> 100 µM,> 100,,> 100,> 100,> 100,> 100,> 100 µM
CCC1(C)N=C(C(N)=O)c2ncn(N=C(C)C)c2N1 (stereo not given),> 100 µM,,> 100,> 100 µM,> 100,> 100,> 100,> 100,> 100,> 100,> 100 µM
CC12ON=C(c3ccccc3)N1C=CN1C(c3ccccc3)=NOC12 (stereo not given),,> 100,> 100,,> 100,> 100,,,> 100,> 100,> 100 µM
Cc1ccc2[nH]c3c(C)c4ccncc4c(C)c3c2c1,3.47 µM,,2.5,2.58 µM,4.16,3.29,1.7,4.25,3.27,7.59,1.61 µM
CCOC(=O)CCC(NC(=O)OCc1ccccc1)C(=O)NC(CCC(=O)OCC)C(=O)NC(CCC(=O)OCC)C(=O)NC(CCC(=O)OCC)C(=O)NC(CCC(=O)OCC)C(=O)OCC (stereo not given),> 100 µM,> 100,> 100,> 100 µM,> 100,> 100,> 100,> 100,,,> 100 µM
CC1(C)CC(=O)c2c(nc3ccc4ccccc4c3c2-c2ccc(NC(=O)CCCCC(=O)Nc3ccc(-c4c5c(nc6ccc7ccccc7c46)CC(C)(C)CC5=O)cc3)cc2)C1,> 100 µM,> 100,> 100,> 100 µM,,> 100,> 100,> 100,> 100,> 100,> 100 µM
CC(=O)c1cccc(NC2C(N)C(NC(=O)N(C)C)(C(C)O)C(C)(O)C2(O)COC(=O)c2c(C)cccc2O)c1 (stereo not given),1.04 µM and 0.532 µM,0.012,0.08,1.08 µM and 0.113 µM,,0.3,1.75,> 100,0.262,0.00141,0.0437 µM and 0.185 µM
COCN1C(=O)[C@@H]2CCCN2C(=O)c2cc([N+](=O)[O-])ccc21,> 100 µM,> 100,> 100,> 100 µM,> 100,> 100,> 100,,,> 100,> 100 µM
CC(C)(C)/C(O)=C\c1nc2cc(C(F)(F)F)ccc2[nH]c1=O,> 100 µM,> 100,> 100,> 100 µM,> 100,> 100,> 100,,> 100,> 100,> 100 µM
O=C(/C=C/c1ccc(Cl)c(Cl)c1)Oc1ccc(/C=C2\CCCCC2=O)cc1,> 100 µM,,> 100,> 100 µM,,> 100,> 100,> 100,> 100,,> 100 µM
CC(=O)c1cn(-c2ccc(Cl)cc2)c(=O)c2c(N)n[nH]c12,> 100 µM,> 100,> 100,> 100 µM,,,> 100,> 100,,> 100,> 100 µM
CSCCCCCCCCCCOc1ccc(C=C2C(=C(C#N)C#N)c3ccccc3C2=C(C#N)C#N)cc1,29.6 µM,,34.5,31 µM,,32.1,37.8,52.6,30,79.9,34.2 µM
CCCCCCCCCN1CCC(=O)C(C(=O)OC)C1 (stereo not given),,,34,22.7 µM,,29.2,27.9,18.1,29.4,27.5,26.9 µM
Fc1ccc(C(OCCN2CCC3CCC(C2)N3Cc2cc3ccccc3[nH]2)c2ccc(F)cc2)cc1 (stereo not given),3.04 µM,5.08,3.73,2.49 µM,2.96,2.94,3.78,,3.39,3.41,2.6 µM
Cc1nc2c(-c3ccccc3)[nH]c(C)c2c(=O)o1,> 100 µM,> 100,> 100,> 100 µM,,> 100,> 100,> 100,,> 100,> 100 µM

# Reference: PubChem BioAssay (NCI)
